# Data from patent US9512075B2 (OKAYAMA UNIVERSITY, priority 2012, dated 2016).
# Where two headings read alike, the source gives them in different places.
# Legend:
# Assay type in all cases: cell-based
# [1] = system: Staphylococcus aureus 209P strain; test: MIC for Staphylococcus aureus 209P strain; details: Staphylococcus aureus, read-out: MIC Straphyrococcus aureus 209P
# [2] = system: Enterococcus faecalis NCTC12201 strain (vancomycin-resistant Enterococcus: VRE); test: MIC for Enterococcus faecalis NCTC12201 strain (VRE); details: read-out: MIC Enterococcus faecalis NCTC 12201 (VRE)
# [3] = system: Staphylococcus aureus MRSA No. 17 (methicillin-resistant Staphylococcus aureus: MRSA); test: MIC for Staphylococcus aureus MRSA No. 17; details: read-out: MIC Straphyrococcus aureus MRSA No. 17 (MRSA)
# [4] = system: Clostridium difficile JCM1296 strain; test: microbe, parasite or virus in culture; details: Clostridioides difficile, JCM1296, read-out: MIC Clostridium difficile JCM1296
# [5] = system: Clostridium perfringens PB6K strain; test: microbe, parasite or virus in culture; details: Clostridium perfringens, PB6KSTRAIN, read-out: MIC Clostridium perfringens PB6K, PB6K strain; CD medium, 37° C. overnight, 10% CO2-containing anaerobic conditions
# [6] = system: Staphylococcus aureus Smith strain; test: MIC for Staphylococcus aureus Smith strain; details: read-out: MIC Straphyrococcus aureus Smith
# [7] = system: Escherichia coli BE1121 strain; test: MIC for Escherichia coli BE1121 strain; details: Escherichia coli, BE1121STRAIN, read-out: MIC Escherichia coli BE1121
# [8] = system: Escherichia coli K-12 strain; test: MIC for Escherichia coli K-12 strain; details: Escherichia coli, K12STRAIN, read-out: MIC Escherichia coli K12
# [9] = system: Enterococcus faecalis 5038 strain; test: MIC for Enterococcus faecalis 5038 strain; details: read-out: MIC Enterococcus faecalis 5038
# [10] = 209P strain, regular bouillon medium, 37° C. overnight, turbidity
# [11] = NCTC12201 strain (VRE), Heart Infusion Broth medium, 37° C. overnight, turbidity
# [12] = MRSA No. 17, regular bouillon medium, 37° C. overnight, turbidity
# [13] = Smith strain, regular bouillon medium, 37° C. overnight, turbidity
# [14] = BE1121 strain, regular bouillon medium, 37° C. overnight, turbidity
# [15] = K-12 strain, regular bouillon medium, 37° C. overnight, turbidity
# [16] = 5038 strain, Heart Infusion Broth medium, 37° C. overnight, turbidity
SMILES,"MIC [1, 10] [µg/mL]","MIC [2, 11] [µg/mL]","MIC [3, 12] [µg/mL]",MIC [4] [µg/mL],MIC [5] [µg/mL],"MIC [6, 13] [µg/mL]","MIC [7, 14] [µg/mL]","MIC [8, 15] [µg/mL]","MIC [9, 16] [µg/mL]",MIC [2] [µg/mL],MIC ([3]; MRSA) [µg/mL],MIC [6] [µg/mL],MIC ([9]; 5038STRAIN) [µg/mL],MIC ([1]; 209P) [µg/mL],MIC [7] [µg/mL],MIC [8] [µg/mL],MIC ([2]; NCTC12201|VRE) [µg/mL]
"CCCCCCCCCCOCC(O)=C1C(=O)N(C(=O)Nc2ccc(Br)cc2)c2ccccc21 [A038, N-(4-bromophenylaminocarbonyl)-3-decyloxyacetyl-2-oxyindole]",64,16,64,32,16,64,128,128,8,–,–,–,–,–,–,–,–
"CCCCCCCCCC(=O)N1C(=O)C(=C(O)c2ccc(OC)cc2)c2ccccc21 [A062, N-decanoyl-3-(4-methoxybenzoyl)-2-oxyindole]",128,–,–,4,8,–,256,256,–,2,16,2,2,–,–,–,–
"CCCCCCCCCC(=O)N1C(=O)/C(=C(\O)c2ccccc2)c2cc(F)ccc21 [A052, N-decanoyl-3-benzoyl-5-fluoro-2-oxyindole]",64,–,–,0.5,0.5,–,128,256,–,0.5,64,0.5,0.25,–,–,–,–
"CCCCC1CCC(C(O)=C2C(=O)N(C(=O)Nc3ccccc3)c3ccccc32)CC1 (stereo not drawn) [A016, N-(phenylaminocarbonyl)-3-(4-butylcyclohexylcarbonyl)-2-oxyindole]",128,0.5,256,0.25,4,4,256,256,1,–,–,–,–,–,–,–,–
"CCCCCCCCCCOC(C)C(=O)c1c(O)c2ccccc2oc1=O (stereo not drawn) [B017, 3-(2-decyloxypropionyl)-4-hydroxycoumarin]",8,–,–,< 0.125,0.25,–,256,256,–,0.5,4,2,1,–,–,–,–
"CCCCC1CCC(C(O)=C2C(=O)N(C(=O)OC(C)(C)C)c3cc(Cl)ccc32)CC1 (stereo not drawn) [A009, N-Boc-3-(4-butylcyclohexylcarbonyl)-6-chloro-2-oxyindole]",128,4,256,0.5,1,32,128,128,4,–,–,–,–,–,–,–,–
"CCCCCCCCCCOC(C)C(O)=C1C(=O)N(C(C)=O)c2ccccc21 (stereo not drawn) [A018, N-acetyl-3-(2-decyloxypropionyl)-2-oxyindole]",–,0.5,8,256,256,0.5,–,–,0.5,–,–,–,–,64,< 0.125,256,–
"CCCCCCCCCC(=O)N1C(=O)C(=C(O)c2ccc(Cl)cc2)c2ccccc21 [A060, N-decanoyl-3-(4-chlorobenzoyl)-2-oxyindole]",64,–,–,0.5,1,–,128,128,–,1,16,1,1,–,–,–,–
"CCCCCCCCC(O)=C1C(=O)N(C(=O)Nc2ccccc2)c2ccc(F)cc21 [A059, N-(phenylaminocarbonyl)-5-fluoro-3-nonanoyl-2-oxyindole]",–,25,64,8,4,0.5,–,–,0.5,–,–,–,–,64,256,128,–
"CCCCC1CCC(C(O)=C2C(=O)N(C(=O)OC(C)(C)C)c3ccc(F)cc32)CC1 (stereo not drawn) [A027, N-Boc-3-(4-butylcyclohexylcarbonyl)-5-fluoro-2-oxyindole]",128,8,128,1,2,16,128,128,8,–,–,–,–,–,–,–,–
"CCCCCCCCCCOCC(=O)c1c(O)c2cc(F)ccc2oc1=O [B019, 3-decyloxyacetyl-6-fluoro-4-hydroxycoumarin]",256,256,256,< 0.125,< 0.125,256,256,256,256,–,–,–,–,–,–,–,–
"CCCCCCCCCCOC(C)C(O)=C1C(=O)N(C(=O)NCCCC)c2ccccc21 (stereo not drawn) [A020, N-(butylaminocarbonyl)-3-(2-decyloxypropionyl)-2-oxyindole]",256,1,256,0.5,4,1,256,256,0.5,–,–,–,–,–,–,–,–
CCCCCCCCCCSCC(=O)c1c(O)c2ccccc2oc1=O [B023],1,–,–,< 0.125,< 0.125,–,2,256,–,–,1,0.25,0.25,–,–,–,0.25
"CCCCCCCCCC(=O)NCC(=O)c1c(O)c2ccccc2oc1=O [B016, 3-decanoylaminoacetyl-4-hydroxycoumarin]",256,256,256,8,16,256,256,256,256,–,–,–,–,–,–,–,–
"CCCCCCCCCC(=O)c1c(O)c2ccc(OC)cc2oc1=O [B001, 3-decanoyl-4-hydroxy-7-methoxycoumarin]",256,64,256,64,64,128,256,256,64,–,–,–,–,–,–,–,–
"CCCCCOCC(=O)c1c(O)c2ccccc2oc1=O [B021, 4-hydroxy-3-(pentyloxyacetyl)coumarin]",–,–,–,8,32,–,–,–,–,64,123,128,32,32,16,128,–
CCCCCCCCCCOCC(O)=C1C(=O)N(C(=O)Nc2ccccc2)c2ccc(F)cc21 [A036],128,0.5,128,0.25,0.25,0.25,128,128,0.5,–,–,–,–,–,–,–,–
"CCCCCCCCCCOCC(O)=C1C(=O)N(C(=O)Nc2ccccc2)c2ccc(Br)cc21 [A035, N-(phenylaminocarbonyl)-5-bromo-3-decyloxyacetyl-2-oxyindole]",64,2,64,0.5,0.25,8,128,128,4,–,–,–,–,–,–,–,–
"CCCCCCCCCC(O)=C1C(=O)Nc2cc(Cl)ccc21 [A002, 3-decanoyl-6-chloro-2-oxyindole]",–,15,16,32,32,16,–,–,16,–,–,–,–,16,128,128,–
"CCCCCCCCCC(O)=C1C(=O)N(C(=O)Nc2ccc(OC)cc2)c2ccc(F)cc21 [A048, N-(4-methoxyphenylaminocarbonyl)-3-decanoyl-5-fluoro-2-oxyindole]",256,–,–,32,256,–,256,256,128,256,256,256,–,–,–,–,–
"CCCCCCCCCC(O)=C1C(=O)N(C(=O)Nc2ccc(Br)cc2)c2ccccc21 [A039, N-(4-bromophenylaminocarbonyl)-3-decanoyl-2-oxyindole]",256,256,256,64,64,256,256,256,256,–,–,–,–,–,–,–,–
"CC(C)[C@H]1CC[C@H](C)CC1OCC(=O)c1c(O)c2ccccc2oc1=O (stereo in doubt) [B006, 4-hydroxy-3-menthyloxyacetylcoumarin]",1,2,2,2,1,1,2,128,2,–,–,–,–,–,–,–,–
